Each structure is given as a SMILES string. Active and inactive are the calls of the source.

The source of these data is ChEMBL document CHEMBL3991601, “The target landscape of clinical kinase drugs” (Science, 2017).

For one assay, the target named is Adenosine kinase (Homo sapiens, UniProt P55263).
For assay [1], the target named is T1, Dual specificity mitogen-activated protein kinase kinase 5 (Homo sapiens, UniProt Q13163).
T1 sequence (Q13163 whole entry): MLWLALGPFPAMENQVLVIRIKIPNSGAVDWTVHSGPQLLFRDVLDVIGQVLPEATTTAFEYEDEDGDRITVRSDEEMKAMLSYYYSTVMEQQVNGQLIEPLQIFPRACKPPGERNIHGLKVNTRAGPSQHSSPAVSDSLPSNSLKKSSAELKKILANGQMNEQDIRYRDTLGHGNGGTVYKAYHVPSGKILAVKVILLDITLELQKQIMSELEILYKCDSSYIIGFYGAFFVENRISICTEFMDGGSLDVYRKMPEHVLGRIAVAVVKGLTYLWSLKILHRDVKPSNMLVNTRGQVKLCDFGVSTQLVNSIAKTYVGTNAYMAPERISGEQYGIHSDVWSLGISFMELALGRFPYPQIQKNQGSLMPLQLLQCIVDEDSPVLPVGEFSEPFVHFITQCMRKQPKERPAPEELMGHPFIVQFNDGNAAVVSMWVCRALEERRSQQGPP

Assay [2] addresses T2, Mitogen-activated protein kinase kinase kinase 6 (Homo sapiens, UniProt O95382).
T2 sequence (O95382 whole entry): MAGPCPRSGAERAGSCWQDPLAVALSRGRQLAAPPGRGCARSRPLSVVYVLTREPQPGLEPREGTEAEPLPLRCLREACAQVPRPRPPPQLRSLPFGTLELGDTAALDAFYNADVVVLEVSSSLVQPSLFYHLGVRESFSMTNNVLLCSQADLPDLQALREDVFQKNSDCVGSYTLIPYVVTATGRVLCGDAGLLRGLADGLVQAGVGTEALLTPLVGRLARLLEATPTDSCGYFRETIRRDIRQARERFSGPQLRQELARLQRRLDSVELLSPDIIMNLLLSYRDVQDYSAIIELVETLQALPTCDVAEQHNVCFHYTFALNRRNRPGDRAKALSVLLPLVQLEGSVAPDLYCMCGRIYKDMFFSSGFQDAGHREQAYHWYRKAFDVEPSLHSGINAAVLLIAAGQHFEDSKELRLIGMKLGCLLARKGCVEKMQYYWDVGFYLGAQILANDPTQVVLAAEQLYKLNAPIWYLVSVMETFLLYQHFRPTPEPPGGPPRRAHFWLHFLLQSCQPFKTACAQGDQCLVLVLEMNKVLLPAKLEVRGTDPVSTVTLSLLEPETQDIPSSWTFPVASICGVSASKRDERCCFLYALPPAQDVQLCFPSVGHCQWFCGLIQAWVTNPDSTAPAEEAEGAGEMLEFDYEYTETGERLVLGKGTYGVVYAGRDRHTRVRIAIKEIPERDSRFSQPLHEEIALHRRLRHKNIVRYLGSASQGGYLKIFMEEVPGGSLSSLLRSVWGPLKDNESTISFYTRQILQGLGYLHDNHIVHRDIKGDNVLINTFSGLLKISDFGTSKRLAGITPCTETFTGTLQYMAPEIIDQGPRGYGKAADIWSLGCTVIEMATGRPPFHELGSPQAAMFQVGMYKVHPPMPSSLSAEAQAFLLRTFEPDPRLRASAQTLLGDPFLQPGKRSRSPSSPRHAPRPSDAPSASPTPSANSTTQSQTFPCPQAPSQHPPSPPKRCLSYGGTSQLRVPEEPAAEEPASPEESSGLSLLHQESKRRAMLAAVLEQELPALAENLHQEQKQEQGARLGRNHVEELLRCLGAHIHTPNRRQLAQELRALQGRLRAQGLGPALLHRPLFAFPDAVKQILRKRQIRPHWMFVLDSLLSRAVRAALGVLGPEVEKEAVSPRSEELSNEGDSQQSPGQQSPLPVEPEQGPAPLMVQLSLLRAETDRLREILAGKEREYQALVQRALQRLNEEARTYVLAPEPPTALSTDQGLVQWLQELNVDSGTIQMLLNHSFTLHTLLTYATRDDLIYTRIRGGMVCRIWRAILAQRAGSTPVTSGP

Assay [3] concerns the target T3, Dynamin-like GTPase OPA1, mitochondrial (Homo sapiens, UniProt O60313).
T3 sequence (O60313 whole entry): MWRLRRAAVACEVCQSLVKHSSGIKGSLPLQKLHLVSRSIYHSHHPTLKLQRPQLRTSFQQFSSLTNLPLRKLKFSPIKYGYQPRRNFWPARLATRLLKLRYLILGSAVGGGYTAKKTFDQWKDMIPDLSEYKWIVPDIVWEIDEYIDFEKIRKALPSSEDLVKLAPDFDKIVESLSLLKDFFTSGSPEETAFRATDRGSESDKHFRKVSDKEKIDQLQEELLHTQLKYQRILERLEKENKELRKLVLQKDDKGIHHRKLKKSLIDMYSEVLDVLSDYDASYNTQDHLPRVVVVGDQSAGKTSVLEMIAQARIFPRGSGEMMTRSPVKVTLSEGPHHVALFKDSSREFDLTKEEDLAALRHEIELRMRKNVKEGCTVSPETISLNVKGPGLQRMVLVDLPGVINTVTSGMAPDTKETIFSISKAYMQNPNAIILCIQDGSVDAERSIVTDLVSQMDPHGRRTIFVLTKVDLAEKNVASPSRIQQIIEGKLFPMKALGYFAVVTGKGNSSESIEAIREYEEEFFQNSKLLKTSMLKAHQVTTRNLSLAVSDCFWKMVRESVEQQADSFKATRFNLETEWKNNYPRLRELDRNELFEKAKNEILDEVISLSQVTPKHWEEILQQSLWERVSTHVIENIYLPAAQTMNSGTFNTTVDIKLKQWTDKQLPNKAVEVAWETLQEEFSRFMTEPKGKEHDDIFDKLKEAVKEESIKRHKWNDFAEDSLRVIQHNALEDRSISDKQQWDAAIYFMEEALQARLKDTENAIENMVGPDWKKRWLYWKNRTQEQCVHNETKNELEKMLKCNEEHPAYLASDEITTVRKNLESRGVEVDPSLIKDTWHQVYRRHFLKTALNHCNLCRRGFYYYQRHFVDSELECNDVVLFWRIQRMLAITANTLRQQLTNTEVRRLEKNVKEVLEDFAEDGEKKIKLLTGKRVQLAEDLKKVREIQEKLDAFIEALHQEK
Note: in the data inactive means no Kd found up to 30 µM.

Chain of Adenosine kinase (P55263 whole entry): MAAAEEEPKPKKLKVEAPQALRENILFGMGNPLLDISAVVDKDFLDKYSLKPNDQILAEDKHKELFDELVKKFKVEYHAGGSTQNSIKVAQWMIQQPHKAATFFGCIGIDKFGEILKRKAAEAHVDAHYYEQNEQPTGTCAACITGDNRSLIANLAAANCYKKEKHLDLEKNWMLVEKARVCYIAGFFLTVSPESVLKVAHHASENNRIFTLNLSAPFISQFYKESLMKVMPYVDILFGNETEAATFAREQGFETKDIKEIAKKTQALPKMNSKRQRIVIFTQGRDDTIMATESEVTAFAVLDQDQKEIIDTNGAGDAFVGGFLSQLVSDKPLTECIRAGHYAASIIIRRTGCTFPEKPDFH

With `CN1CCN(c2nc(C3=C(c4c[nH]c5ccccc45)C(=O)NC3=O)c3ccccc3n2)CC1` [SOTRASTAURIN], the Kd (at Adenosine kinase; in assay [1]; in assay [2]; in assay [3]) was > 30 µM (inactive) each time.

`CCN1CCN(Cc2ccc(Nc3ncc(F)c(-c4cc(F)c5nc(C)n(C(C)C)c5c4)n3)nc2)CC1` [ABEMACICLIB]: the Kd (on Adenosine kinase; in assay [1]; in assay [2]; in assay [3]) was > 30 µM (inactive) each time.

`COc1ccc(-c2ccc3ncc4c(c3c2)n(-c2ccc(N3CCNCC3)c(C(F)(F)F)c2)c(=O)n4C)cn1` [BGT-226 FREE BASE]: the Kd (at Adenosine kinase; in assay [1]; in assay [2]; in assay [3]) was > 30 µM (inactive) in each case.

As for `Cc1c(Cn2c(C)nc3c(C(=O)O)cc(N4CCOCC4)cc32)cccc1C(F)(F)F` [GSK-2636771], the Kd (at Adenosine kinase; in assay [1]; in assay [2]; in assay [3]) was > 30 µM (inactive) throughout.

On to `Cn1cc(-c2[nH]c3cc(NC(=O)[C@H](N)C4CCCCC4)cc4c3c2C=NNC4=O)cn1`, for which the Kd on Adenosine kinase is > 30 µM (inactive); in assay [1], 2.19 µM (active); in assay [2], > 30 µM (inactive); in assay [3] it was > 30 µM (inactive).

For `C[C@@H]1COC(Nc2ccc3ncnc(Nc4ccc(OCc5nccs5)c(Cl)c4)c3c2)=N1` [VARLITINIB], the Kd (at Adenosine kinase; in assay [1]; in assay [2]; in assay [3]) was > 30 µM (inactive) throughout.

On to `CCc1cc2c(cc1N1CCC(N3CCOCC3)CC1)C(C)(C)c1[nH]c3cc(C#N)ccc3c1C2=O` [ALECTINIB], for which the Kd (at Adenosine kinase; in assay [1]; in assay [2]; in assay [3]) was > 30 µM (inactive) throughout.

In the case of `C#Cc1cccc(Nc2ncnc3cc4c(cc23)OCCOCCOCCO4)c1` [ICOTINIB], the Kd (at Adenosine kinase; in assay [1]; in assay [2]; in assay [3]) was > 30 µM (inactive) throughout.

For `Cn1c(=O)c(F)c(Nc2ccc(I)cc2F)c2c(=O)n(C[C@@H](O)CO)cnc21` [TAK-733], the Kd on Adenosine kinase was > 30 µM (inactive); in assay [1], 3.35 µM; in assay [2], > 30 µM (inactive); in assay [3] it was > 30 µM (inactive).

Consider `COc1cc2ncnc3c2cc1OCCCCCN(C)Cc1ccc(Br)cc1N3` [JNJ-26483327], for which the Kd (at Adenosine kinase; in assay [1]; in assay [2]; in assay [3]) was > 30 µM (inactive) throughout.

Take `FC(F)(F)c1ccc(CNc2ccc(Cc3c[nH]c4ncc(Cl)cc34)cn2)cn1` [PEXIDARTINIB]: the Kd (at Adenosine kinase; in assay [1]; in assay [2]; in assay [3]) was > 30 µM (inactive) in each case.

For the compound `COc1ccc2c(OCc3nnc4ccc(-c5ccccc5)nn34)ccnc2c1` [AMG-208], the Kd (at Adenosine kinase; in assay [1]; in assay [2]; in assay [3]) was > 30 µM (inactive) each time.

With `Cc1cc(-c2cc(OC(=O)c3ccccc3)ccc2Cl)cc2nnc(Nc3ccc(OCCN4CCCC4)cc3)nc12` [TG100-801], the Kd (at Adenosine kinase; in assay [1]; in assay [2]; in assay [3]) was > 30 µM (inactive) throughout.

For the compound `CN(c1ncccc1CNc1nc(Nc2ccc3c(c2)CC(=O)N3)ncc1C(F)(F)F)S(C)(=O)=O` [PF-00562271], the Kd (at Adenosine kinase; in assay [1]; in assay [2]; in assay [3]) was > 30 µM (inactive) in each case.

With `O=C(NC[C@H](O)CO)c1ccncc1Nc1ccc(I)cc1F` [PIMASERTIB], the Kd (on Adenosine kinase; in assay [1]; in assay [2]; in assay [3]) was > 30 µM (inactive) throughout.

In the case of `c1cc(OCCN2CCCCC2)cc(-c2n[nH]c3ccc(-c4nc[nH]n4)cc23)c1` [CC-401], the Kd (on Adenosine kinase; in assay [1]; in assay [2]; in assay [3]) was > 30 µM (inactive) in each case.

`NC(=O)c1ccc(N(C(N)=O)c2c(F)cccc2F)nc1-c1ccc(F)cc1F` [VX-702]: the Kd (on Adenosine kinase; in assay [1]; in assay [2]; in assay [3]) was > 30 µM (inactive) throughout.

Regarding `CC[C@@](C)(Nc1ccnc(-c2c[nH]c3ncccc23)n1)C(=O)NCC(F)(F)F` [DECERNOTINIB], the Kd (on Adenosine kinase; in assay [1]; in assay [2]; in assay [3]) was > 30 µM (inactive) each time.

As to `CC(C)CC(=O)Nc1[nH]nc2c1CN(C(=O)C1CCN(C)CC1)C2(C)C` [PHA-793887], the Kd (on Adenosine kinase; in assay [1]; in assay [2]; in assay [3]) was > 30 µM (inactive) throughout.

On to `COc1cc2ncnc(Nc3ccc(O)cc3)c2cc1OC` [WHI-P131], for which the Kd (on Adenosine kinase; in assay [1]; in assay [2]; in assay [3]) was > 30 µM (inactive) each time.

For the compound `CNC(=O)c1cc(COc2nnc(Nc3ccc(Cl)cc3)c3ccoc23)ccn1` [TELATINIB], the Kd (on Adenosine kinase; in assay [1]; in assay [2]; in assay [3]) was > 30 µM (inactive) each time.

For the compound `COc1cccc(Nc2ncnn3ccc(CN4CC[C@@H](N)[C@H](O)C4)c23)c1` [BMS-690514], the Kd at Adenosine kinase was > 30 µM (inactive); in assay [1], 0.972 µM (active); in assay [2], > 30 µM (inactive); in assay [3] it was > 30 µM (inactive).

By Kd is commonly meant the concentration at which binding is half-saturated.
